ChEMBL document CHEMBL1201862, “PubChem BioAssay data set” (2004)
Calls of active or inactive are those of the source.

Key:
[1] = target: T1, Kappa-type opioid receptor (Homo sapiens, UniProt P41145); assay: kappa opioid receptor activation by imaging – image-based, set 3, SAR follow-up (AID 488833); format: functional
[2] = target: Mu-type opioid receptor (Homo sapiens, UniProt P35372); assay: SAR Analysis of Agonists of the MOR Receptor using an Image-Based Assay - Set 3. [Related pubchem assays (depositor defined):AID1777, AID1785, AID1786, AID1966, AID2133, AID2136, AID2284, AID2285, AID2352]; format: functional
[3] = target: Delta-type opioid receptor (Homo sapiens, UniProt P41143); assay: SAR Analysis of Agonists of the DOR Receptor using an Image-Based Assay - Set 3. [Related pubchem assays (depositor defined):AID1777, AID1786]; format: functional
[4] = target: T1, Kappa-type opioid receptor; assay: SAR analysis of small molecule agonists of the kappa opioid receptor via a luminescent beta-arrestin assay - Set 3. [Related pubchem assays (depositor defined):AID1777, AID1785, AID1786, AID1966, AID2133, AID2136, AID2284, AID2500]; format: functional
[5] = target: T2, Tyrosine-protein phosphatase non-receptor type 22 (Homo sapiens, UniProt Q9Y2R2); assay: SAR LYP1 Fluorescent Assay using pCAP substrate for In Vitro dose response studies - Set 2. [Related pubchem assays (depositor defined):AID1779, AID1784, AID2135, AID449727]; format: functional
T2 sequence (Q9Y2R2 whole entry): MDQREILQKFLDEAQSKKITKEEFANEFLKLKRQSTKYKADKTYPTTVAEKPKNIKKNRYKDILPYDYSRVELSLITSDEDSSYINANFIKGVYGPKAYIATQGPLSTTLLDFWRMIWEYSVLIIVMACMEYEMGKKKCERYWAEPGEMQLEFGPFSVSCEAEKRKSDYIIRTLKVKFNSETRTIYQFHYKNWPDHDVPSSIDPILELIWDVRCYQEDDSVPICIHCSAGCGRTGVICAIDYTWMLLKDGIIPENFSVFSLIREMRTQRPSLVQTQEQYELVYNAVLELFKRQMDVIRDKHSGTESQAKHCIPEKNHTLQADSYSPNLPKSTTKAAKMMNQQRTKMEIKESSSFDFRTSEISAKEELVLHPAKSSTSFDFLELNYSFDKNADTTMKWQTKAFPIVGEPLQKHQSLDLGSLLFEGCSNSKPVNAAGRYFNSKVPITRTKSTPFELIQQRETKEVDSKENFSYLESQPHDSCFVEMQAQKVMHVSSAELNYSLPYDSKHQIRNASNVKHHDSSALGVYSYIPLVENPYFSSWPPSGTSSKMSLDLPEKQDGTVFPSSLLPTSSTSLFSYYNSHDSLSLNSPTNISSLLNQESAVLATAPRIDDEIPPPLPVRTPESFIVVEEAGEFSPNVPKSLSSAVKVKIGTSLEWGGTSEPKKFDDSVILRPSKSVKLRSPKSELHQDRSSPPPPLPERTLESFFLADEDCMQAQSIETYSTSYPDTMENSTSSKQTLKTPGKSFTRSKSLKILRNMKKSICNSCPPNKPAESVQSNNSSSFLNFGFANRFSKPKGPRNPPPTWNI

[6] = target: T2, Tyrosine-protein phosphatase non-receptor type 22; assay: SAR LYP1 Fluorescent Assay using OMFP substrate for In Vitro dose response studies - Set 3. [Related pubchem assays (depositor defined):AID1779, AID1784, AID2140, AID2686]; format: functional
[7] = target: T3, Tyrosine-protein phosphatase non-receptor type 7 (Homo sapiens, UniProt P35236); assay: inhibition of hematopoietic tyrosine phosphatase HePTP – biochemical, set 2, SAR follow-up (AID 449736); format: functional
T3 sequence (P35236 whole entry): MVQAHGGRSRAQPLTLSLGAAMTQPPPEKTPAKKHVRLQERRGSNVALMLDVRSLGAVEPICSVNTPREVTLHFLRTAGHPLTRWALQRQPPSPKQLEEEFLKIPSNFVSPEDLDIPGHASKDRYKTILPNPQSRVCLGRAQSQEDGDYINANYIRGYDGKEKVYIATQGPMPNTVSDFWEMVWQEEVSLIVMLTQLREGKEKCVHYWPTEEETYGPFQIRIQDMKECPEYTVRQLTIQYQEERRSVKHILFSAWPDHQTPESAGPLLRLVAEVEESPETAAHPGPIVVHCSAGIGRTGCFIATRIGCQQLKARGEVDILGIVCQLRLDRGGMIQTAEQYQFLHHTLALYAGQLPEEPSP

[8] = target: T2, Tyrosine-protein phosphatase non-receptor type 22; assay: inhibition of lymphoid tyrosine phosphatase LYP – biochemical, pCAP fluorogenic substrate, fluorescence, set 3, SAR follow-up (AID 449727); format: functional
[9] = target: T2, Tyrosine-protein phosphatase non-receptor type 22; assay: SAR LYP1 Fluorescent Assay using OMFP substrate for In Vitro dose response studies - Set 2. [Related pubchem assays (depositor defined):AID1779, AID1784, AID2140, AID449726, AID488869]; format: functional
[10] = target: T4, Heat shock factor protein 1 (Mus musculus, UniProt P38532); assay: decrease of HSF1-responsive luciferase luminescence – cell-based, NIH3T3, dose retest, confirmation (AID 2382); format: functional;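 also: NIH3T3 fibroblasts with HSF1-driven luciferase reporter stressed by proteasome inhibitor MG132; luminescence from HSF1-driven luciferase expression after 8 hours of MG132 stress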
T4 sequence (P38532 whole entry): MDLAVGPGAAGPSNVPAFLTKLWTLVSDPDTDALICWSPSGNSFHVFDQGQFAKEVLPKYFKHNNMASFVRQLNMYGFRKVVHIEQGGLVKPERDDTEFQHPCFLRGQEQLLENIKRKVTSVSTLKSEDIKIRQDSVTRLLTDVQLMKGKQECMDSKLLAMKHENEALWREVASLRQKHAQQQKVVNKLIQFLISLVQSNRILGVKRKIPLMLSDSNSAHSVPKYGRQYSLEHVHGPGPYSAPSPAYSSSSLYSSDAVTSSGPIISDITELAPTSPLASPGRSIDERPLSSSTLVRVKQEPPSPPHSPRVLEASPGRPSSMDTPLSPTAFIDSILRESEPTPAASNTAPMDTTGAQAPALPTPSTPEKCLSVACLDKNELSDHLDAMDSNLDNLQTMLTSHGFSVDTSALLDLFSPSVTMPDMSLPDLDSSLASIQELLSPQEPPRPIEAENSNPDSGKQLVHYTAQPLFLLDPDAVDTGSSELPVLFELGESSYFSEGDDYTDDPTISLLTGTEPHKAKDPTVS

[11] = target: T5, G-protein coupled receptor 55 (Homo sapiens, UniProt Q9Y2T6); assay: selective activators of receptor GPR55 – imaging, U2OS cells, beta-arrestin-GFP redistribution, primary screen (AID 1961); format: functional
[12] = target: T6, Cannabinoid receptor 2 (Homo sapiens, UniProt P34972); assay: SAR analysis of antagonists of the Cannabinoid Receptor 2 using an Image-Based Assay - Set 2. [Related pubchem assays (depositor defined):AID1961, AID1965]; format: functional
[13] = target: T6, Cannabinoid receptor 2; assay: SAR analysis of agonists of the Cannabinoid Receptor 2 using an Image-Based Assay - Set 2. [Related pubchem assays (depositor defined):AID1961, AID1965]; format: functional
[14] = target: T5, G-protein coupled receptor 55; assay: SAR analysis of selective Agonists of GPR55 using an Image-Based Assay. [Related pubchem assays (depositor defined):AID1961, AID1965]; format: functional
[15] = target: Cannabinoid receptor 1 (Homo sapiens, UniProt P21554); assay: SAR analysis of antagonists of the Cannabinoid Receptor 1 using an Image-Based Assay. [Related pubchem assays (depositor defined):AID1961, AID1965]; format: functional
[16] = target: T7, Cysteine protease ATG4B (Homo sapiens, UniProt Q9Y4P1); format: functional;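 also: Fluorescence-based dose-response confirmation assay measuring inhibition of ATG4B activity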
T7 sequence (Q9Y4P1 whole entry): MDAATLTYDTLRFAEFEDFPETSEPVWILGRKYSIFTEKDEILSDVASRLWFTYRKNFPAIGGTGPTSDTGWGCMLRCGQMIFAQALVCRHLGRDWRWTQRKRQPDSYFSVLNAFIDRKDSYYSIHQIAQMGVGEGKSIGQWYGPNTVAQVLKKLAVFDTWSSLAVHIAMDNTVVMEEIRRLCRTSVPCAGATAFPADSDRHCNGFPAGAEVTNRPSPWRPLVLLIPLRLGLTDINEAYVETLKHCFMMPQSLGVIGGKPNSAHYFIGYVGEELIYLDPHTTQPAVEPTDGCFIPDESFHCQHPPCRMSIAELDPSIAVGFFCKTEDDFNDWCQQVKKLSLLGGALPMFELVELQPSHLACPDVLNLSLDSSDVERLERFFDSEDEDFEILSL

[17] = target: Phospholipase A2 (Homo sapiens, UniProt P04054); format: functional;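 also: confirmatory dose-response counterscreen on phospholipase A2, testing hits that came from an ultra-high-throughput screen for ATG4B inhibitors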
[18] = Counterscreen for IDE inhibitors: Luminescence-based cell-based high throughput dose response assay to identify compounds that are cytotoxic to HEK cells. [Related pubchem assays: 434962 (Primary screen (IDE inhibitors in singlicate)), 449730 (Counterscreen (Cytotoxicity in triplicate)), 435028 (Confirmation (IDE inhibitors in triplicate)) …; format: functional; settings: HEK293
[19] = target: T8, Insulin-degrading enzyme (Homo sapiens, UniProt P14735); assay: Dose Response: Fluorescence polarization-based cell-based high throughput dose response assay for inhibitors of insulin-degrading enzyme (IDE). [Related pubchem assays: 434962 (Primary screen (IDE inhibitors in singlicate)), 449730 (Counterscreen (Cytotoxicity in triplicate)), 435028 (Confirmation (IDE inhibitors in triplicate)), 434984 (Summary …; format: functional
T8 sequence (P14735 whole entry): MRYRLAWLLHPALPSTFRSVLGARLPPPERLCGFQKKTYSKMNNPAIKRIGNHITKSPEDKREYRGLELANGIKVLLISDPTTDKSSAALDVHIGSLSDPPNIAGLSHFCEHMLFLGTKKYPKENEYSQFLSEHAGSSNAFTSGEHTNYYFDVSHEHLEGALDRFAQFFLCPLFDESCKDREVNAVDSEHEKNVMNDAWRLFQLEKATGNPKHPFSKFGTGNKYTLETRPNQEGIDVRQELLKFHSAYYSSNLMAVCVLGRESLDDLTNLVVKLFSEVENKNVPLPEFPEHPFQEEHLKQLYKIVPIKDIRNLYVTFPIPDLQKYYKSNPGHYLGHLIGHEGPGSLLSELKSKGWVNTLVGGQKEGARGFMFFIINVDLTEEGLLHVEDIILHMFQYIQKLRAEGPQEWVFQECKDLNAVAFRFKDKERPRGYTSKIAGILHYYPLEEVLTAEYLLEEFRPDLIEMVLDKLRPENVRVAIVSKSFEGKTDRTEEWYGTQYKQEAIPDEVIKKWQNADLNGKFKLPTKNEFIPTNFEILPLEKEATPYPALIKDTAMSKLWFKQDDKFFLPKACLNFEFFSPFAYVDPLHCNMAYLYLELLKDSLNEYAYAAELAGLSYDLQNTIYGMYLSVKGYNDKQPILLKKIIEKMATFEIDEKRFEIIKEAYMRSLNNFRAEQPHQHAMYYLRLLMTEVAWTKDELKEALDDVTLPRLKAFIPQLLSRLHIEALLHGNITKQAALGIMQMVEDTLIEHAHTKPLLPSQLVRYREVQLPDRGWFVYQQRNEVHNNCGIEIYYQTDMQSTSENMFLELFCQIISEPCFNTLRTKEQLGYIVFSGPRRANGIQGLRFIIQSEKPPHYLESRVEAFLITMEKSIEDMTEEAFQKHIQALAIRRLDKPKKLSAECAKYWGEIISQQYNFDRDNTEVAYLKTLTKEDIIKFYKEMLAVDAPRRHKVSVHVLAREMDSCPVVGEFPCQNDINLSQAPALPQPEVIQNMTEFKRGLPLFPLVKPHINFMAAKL

[20] = target: Intestinal-type alkaline phosphatase (Mus musculus, UniProt P24822); assay: PubChem AID 488785; format: functional
[21] = target: T9, Alkaline phosphatase, tissue-nonspecific isozyme (Homo sapiens, UniProt P05186); assay: TNAP enzyme inhibition by screening hits, dose response, selectivity assay for mouse IAP inhibitor project, biochemical, human TNAP, uHTS hits (AID 488906); format: functional
T9 sequence (P05186 whole entry): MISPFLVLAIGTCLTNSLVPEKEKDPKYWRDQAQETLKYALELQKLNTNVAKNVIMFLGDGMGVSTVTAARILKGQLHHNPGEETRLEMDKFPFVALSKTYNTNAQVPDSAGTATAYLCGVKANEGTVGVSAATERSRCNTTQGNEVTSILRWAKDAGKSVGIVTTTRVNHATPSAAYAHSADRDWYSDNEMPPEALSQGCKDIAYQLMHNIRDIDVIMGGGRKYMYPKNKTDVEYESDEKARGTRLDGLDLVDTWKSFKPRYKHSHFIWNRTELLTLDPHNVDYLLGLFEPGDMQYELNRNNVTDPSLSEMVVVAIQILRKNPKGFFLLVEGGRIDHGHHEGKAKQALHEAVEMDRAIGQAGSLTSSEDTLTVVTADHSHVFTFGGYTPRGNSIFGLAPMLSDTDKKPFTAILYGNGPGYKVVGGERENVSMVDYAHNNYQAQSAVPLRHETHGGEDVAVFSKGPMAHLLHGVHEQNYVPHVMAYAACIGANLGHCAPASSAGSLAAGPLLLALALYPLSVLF

[22] = target: Intestinal-type alkaline phosphatase (Homo sapiens, UniProt P09923); assay: inhibition of human intestinal alkaline phosphatase – biochemical, dose response (AID 488876); format: functional
[23] = target: Dual specificity tyrosine-phosphorylation-regulated kinase 1A (Rattus norvegicus, UniProt Q63470); format: biochemical, Homo sapiens

T6 sequence (P34972 whole entry): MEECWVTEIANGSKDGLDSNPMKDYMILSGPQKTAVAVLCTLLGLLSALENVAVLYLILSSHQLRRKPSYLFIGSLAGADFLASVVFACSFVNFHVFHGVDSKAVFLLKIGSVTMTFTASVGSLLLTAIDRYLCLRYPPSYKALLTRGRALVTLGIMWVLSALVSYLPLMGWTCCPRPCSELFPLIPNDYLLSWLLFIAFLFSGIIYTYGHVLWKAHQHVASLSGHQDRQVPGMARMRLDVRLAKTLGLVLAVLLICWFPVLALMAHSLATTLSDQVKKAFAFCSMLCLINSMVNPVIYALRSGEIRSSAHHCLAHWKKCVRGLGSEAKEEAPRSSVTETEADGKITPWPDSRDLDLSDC
T5 sequence (Q9Y2T6 whole entry): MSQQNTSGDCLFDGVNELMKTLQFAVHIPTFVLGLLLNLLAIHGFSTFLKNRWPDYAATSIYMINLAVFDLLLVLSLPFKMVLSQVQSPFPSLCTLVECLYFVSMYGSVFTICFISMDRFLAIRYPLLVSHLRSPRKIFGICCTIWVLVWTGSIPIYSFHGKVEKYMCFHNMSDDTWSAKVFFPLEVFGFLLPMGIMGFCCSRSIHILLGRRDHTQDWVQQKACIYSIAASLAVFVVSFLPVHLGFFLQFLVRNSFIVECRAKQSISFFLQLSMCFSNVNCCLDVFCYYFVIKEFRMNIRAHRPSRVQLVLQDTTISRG
T1 sequence (P41145 whole entry): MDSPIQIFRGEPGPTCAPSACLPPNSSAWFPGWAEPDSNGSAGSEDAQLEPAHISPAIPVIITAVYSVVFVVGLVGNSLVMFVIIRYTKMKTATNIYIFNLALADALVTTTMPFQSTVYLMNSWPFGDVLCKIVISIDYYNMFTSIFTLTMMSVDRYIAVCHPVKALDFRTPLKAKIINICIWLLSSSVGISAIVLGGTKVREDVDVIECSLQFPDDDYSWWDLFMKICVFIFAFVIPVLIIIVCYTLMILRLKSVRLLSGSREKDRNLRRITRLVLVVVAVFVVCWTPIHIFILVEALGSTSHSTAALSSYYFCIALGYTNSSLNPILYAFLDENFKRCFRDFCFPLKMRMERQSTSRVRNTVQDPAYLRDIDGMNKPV
Chain of Delta-type opioid receptor (P41143 whole entry): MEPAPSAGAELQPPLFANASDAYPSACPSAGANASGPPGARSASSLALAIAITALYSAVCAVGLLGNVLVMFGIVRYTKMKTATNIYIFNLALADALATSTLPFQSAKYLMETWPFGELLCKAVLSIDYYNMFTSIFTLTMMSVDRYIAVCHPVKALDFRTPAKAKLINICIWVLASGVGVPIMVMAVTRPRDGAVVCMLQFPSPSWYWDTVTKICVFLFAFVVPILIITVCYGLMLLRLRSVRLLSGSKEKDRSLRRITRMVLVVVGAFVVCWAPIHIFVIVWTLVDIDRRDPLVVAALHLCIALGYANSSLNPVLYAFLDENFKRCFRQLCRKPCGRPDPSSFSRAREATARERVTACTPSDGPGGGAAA
Chain of Intestinal-type alkaline phosphatase (Homo sapiens, UniProt P09923) (P09923 whole entry): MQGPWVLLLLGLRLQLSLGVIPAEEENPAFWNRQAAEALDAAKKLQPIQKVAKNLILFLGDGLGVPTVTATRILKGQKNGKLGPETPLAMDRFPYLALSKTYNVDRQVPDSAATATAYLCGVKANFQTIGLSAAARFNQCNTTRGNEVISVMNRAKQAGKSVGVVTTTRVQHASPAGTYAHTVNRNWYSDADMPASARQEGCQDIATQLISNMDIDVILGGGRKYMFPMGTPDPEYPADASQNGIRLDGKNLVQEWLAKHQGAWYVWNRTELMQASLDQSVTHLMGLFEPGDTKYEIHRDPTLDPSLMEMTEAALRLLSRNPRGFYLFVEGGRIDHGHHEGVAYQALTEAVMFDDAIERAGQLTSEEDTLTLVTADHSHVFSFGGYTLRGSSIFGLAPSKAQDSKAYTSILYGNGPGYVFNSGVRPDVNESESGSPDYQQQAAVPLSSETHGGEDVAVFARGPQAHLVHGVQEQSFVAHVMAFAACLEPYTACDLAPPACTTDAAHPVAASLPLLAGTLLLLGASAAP
Chain of Intestinal-type alkaline phosphatase (Mus musculus, UniProt P24822) (P24822 whole entry): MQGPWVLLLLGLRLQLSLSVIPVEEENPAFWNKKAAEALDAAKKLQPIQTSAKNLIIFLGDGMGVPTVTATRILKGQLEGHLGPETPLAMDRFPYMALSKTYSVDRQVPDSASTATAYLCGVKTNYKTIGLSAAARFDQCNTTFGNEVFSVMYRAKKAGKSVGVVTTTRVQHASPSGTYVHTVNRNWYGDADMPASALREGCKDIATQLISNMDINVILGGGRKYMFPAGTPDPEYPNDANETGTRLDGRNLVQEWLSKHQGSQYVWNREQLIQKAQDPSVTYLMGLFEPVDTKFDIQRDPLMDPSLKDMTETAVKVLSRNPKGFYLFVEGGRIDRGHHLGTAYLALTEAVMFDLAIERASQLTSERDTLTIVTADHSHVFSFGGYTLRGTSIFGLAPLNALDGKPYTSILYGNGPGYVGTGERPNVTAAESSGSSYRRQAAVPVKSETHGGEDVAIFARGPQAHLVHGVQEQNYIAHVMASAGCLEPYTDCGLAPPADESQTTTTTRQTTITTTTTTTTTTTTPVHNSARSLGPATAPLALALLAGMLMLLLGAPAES
Chain of Cannabinoid receptor 1 (P21554 whole entry): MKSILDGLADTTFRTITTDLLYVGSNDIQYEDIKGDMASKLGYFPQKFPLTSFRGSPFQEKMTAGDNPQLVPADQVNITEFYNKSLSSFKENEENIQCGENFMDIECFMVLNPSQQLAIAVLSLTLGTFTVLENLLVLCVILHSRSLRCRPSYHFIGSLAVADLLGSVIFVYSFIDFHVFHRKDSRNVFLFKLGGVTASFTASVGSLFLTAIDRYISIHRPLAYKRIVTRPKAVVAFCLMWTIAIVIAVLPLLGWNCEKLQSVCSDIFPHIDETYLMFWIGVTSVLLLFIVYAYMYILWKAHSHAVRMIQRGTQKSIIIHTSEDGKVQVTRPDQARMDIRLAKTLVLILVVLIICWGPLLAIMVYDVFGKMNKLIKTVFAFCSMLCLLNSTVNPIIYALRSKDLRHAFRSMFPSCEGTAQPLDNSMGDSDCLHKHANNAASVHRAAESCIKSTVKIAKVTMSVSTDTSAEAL
Chain of Mu-type opioid receptor (P35372 whole entry): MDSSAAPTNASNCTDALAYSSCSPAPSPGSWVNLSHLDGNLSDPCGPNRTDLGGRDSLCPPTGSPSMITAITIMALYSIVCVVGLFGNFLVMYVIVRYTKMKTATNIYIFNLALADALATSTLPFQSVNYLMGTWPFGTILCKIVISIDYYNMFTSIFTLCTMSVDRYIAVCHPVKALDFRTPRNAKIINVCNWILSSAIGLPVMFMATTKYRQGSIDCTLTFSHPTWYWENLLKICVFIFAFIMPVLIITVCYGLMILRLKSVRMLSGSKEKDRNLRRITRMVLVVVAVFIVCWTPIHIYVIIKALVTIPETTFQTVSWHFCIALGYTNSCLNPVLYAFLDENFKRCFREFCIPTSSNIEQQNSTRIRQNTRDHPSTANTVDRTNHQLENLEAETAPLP
Chain of Phospholipase A2 (P04054 whole entry): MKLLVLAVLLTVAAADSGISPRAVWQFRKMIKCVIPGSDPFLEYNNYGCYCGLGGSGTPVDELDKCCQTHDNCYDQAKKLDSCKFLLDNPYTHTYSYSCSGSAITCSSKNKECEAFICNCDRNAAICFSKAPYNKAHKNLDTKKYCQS

Cc1c(CSc2nnc(-c3ccccn3)n2Cc2ccco2)cccc1[N+](=O)[O-]
EC50 [1]: 12.2 µM (inactive) | EC50 [2]: > 32 µM (inactive) | EC50 [3]: > 64 µM (inactive) | EC50 [4]: 8.21 µM (active)

NC1=NC(=O)/C(=C/c2ccc(OCC(=O)O)cc2)S1
IC50 [5]: 55 µM (active) | IC50 [6]: > 100 µM (inactive) | IC50 [7]: > 100 µM (inactive) | IC50 [8]: 44.8 µM (active) | IC50 [9]: > 100 µM (inactive)

COc1cc2c(cc1NC(=O)C(C)Sc1ccc(NC(C)=O)cc1)oc1ccccc12 (stereo not drawn)
EC50 [10]: > 195 µM (not active) | EC50 [11]: 806 nM (active) | IC50 [12]: > 32 µM (inactive) | EC50 [13]: > 32 µM (inactive) | EC50 [14]: 865 nM (active) | IC50 [15]: > 32 µM (inactive) | IC50 [16]: 14.7 µM (active) | IC50 [17]: 10 µM (active)

COc1cc(/C=N/N2C(=O)CSC2=S)ccc1O
IC50 [18]: > 55.7 µM (not active) | IC50 [19]: > 6.22 µM (active) | IC50 [20]: 2.2 µM (active) | IC50 [21]: > 100 µM (inactive) | IC50 [22]: 21.3 µM (active) | AC50 [23]: 9.55 µM (active)
